Measurements published in patent publication US20250171420A1 (Monte Rosa Therapeutics, Inc., priority 2022, published 2025).

Target: T1, CK1α (Homo sapiens, UniProt P48729)
T1 construct: HEK293 clonal lines with CRISPR KI HiBiT tag on CSNK1A1
Assay: CK1α NanoBit Assay (HiBiT-tagged CSNK1A1, HEK293 clonal lines)
Assay type: cell-based
Conditions: HEK293 HiBiT-CSNK1A1/LgBiT cells, 24 h incubation
Method: HEK293 clonal lines with CRISPR KI HiBiT tag on CSNK1A1 and stably expressing LgBiT protein were obtained from Promega (Madison, WI). […] Cells were incubated at 37° C., 5% CO2 for 24 hours and then signal was read on a Pherastar FSX using “LUM plus” optic module.
Data analysis was performed in Scinamic (Scinamic, Cambridge, MA). Luminescence response (R) was calculated by the formula: response=100*(S−N)/(P−N) where S is the signal of the well, N and P the mean negative and positive control values respectively of the same plate.
DC50 data are reported in Table 2 for compounds in Table 1. In Table 2 below, According to the code, A represents a DC50 value of ≤0.1 μM, B represents a DC50 value>0.1 μM and ≤1 μM, C represents an DC50 value>1 μM.

T1 sequence (P48729 whole entry): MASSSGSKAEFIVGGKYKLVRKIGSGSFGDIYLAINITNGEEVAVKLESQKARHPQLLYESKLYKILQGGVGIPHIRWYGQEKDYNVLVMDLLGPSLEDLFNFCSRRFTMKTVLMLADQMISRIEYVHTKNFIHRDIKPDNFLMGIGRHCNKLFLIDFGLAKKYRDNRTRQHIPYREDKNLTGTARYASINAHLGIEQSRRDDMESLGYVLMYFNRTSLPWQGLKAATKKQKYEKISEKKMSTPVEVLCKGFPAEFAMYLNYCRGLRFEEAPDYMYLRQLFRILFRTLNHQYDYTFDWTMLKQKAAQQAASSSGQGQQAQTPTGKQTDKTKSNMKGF
T1 sequence (Q96SW2 whole entry, further chain): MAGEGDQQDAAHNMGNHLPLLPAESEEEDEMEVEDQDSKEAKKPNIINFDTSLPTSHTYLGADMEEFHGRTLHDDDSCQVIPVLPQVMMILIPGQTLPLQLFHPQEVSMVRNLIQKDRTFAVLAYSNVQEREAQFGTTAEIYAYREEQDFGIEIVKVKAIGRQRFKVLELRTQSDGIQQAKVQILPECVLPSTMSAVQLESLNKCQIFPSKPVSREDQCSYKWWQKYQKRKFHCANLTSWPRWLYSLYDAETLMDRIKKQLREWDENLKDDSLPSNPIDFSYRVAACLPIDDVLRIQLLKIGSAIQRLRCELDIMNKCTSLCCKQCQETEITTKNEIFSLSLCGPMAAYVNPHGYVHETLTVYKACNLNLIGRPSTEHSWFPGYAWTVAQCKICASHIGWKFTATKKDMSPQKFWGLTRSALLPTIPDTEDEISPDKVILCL
T1 sequence (Q16531 2-1140 partner limits assumed): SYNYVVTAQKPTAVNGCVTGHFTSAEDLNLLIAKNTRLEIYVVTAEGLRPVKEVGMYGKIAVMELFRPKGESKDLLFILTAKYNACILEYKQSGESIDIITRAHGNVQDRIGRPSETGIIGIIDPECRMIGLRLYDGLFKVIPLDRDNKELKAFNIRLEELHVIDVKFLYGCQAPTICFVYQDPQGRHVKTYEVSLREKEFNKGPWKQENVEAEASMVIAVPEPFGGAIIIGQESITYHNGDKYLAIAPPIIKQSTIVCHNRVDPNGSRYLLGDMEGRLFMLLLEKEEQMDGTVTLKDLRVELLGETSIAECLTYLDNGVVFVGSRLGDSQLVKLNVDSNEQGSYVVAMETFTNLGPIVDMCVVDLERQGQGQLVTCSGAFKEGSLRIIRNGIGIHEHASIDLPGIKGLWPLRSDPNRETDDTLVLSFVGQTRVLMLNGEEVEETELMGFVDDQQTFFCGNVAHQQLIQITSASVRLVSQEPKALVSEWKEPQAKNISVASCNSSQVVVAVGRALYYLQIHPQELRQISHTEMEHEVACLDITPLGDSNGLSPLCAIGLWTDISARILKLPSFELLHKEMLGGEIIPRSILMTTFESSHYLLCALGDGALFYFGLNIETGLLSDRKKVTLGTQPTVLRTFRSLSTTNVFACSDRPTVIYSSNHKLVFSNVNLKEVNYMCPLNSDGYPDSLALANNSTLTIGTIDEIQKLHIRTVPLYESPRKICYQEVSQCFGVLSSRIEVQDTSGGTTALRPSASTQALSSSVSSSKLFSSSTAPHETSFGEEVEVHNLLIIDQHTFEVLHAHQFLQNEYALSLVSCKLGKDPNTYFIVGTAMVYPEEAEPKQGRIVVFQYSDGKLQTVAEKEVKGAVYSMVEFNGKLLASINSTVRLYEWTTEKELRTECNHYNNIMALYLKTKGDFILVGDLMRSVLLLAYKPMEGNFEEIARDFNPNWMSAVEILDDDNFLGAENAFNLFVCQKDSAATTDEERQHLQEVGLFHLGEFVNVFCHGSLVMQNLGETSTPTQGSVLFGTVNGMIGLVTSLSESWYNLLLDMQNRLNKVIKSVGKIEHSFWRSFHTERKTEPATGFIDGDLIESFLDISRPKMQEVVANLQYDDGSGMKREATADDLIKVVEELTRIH

| SMILES | DC50 [µM] |
| --- | --- |
| O=C1CCC(N2Cc3cc(NC(=O)N4CCCC4c4ccccc4)ccc3C2=O)C(=O)N1 (stereo not drawn) [Compound 264] | < 0.1 |
| Cc1cccc(N2CCN(C(=O)Nc3ccc4c(c3)CN(C3CCC(=O)NC3=O)C4=O)CC2)c1 (stereo not drawn) [Compound 265] | 0.1 to 1 |
| O=C1CCC(N2Cc3cc(NC(=O)N4CCN(c5ccncn5)CC4)ccc3C2=O)C(=O)N1 (stereo not drawn) [Compound 266] | > 1 |
| Cn1ccc(C2CCCN(C(=O)Nc3ccc4c(c3)CN(C3CCC(=O)NC3=O)C4=O)C2)n1 (stereo not drawn) [Compound 267] | 0.1 to 1 |
| O=C1CCC(N2Cc3cc(NC(=O)N4CC(c5cccc(Cl)c5)C4)ccc3C2=O)C(=O)N1 (stereo not drawn) [Compound 268] | < 0.1 |
| O=C1CCC(N2Cc3cc(NC(=O)N4CC(c5ccc(F)cc5)C4)ccc3C2=O)C(=O)N1 (stereo not drawn) [Compound 269] | < 0.1 |
| O=C1CCC(N2Cc3cc(NC(=O)N4CCCC4c4ccccn4)ccc3C2=O)C(=O)N1 (stereo not drawn) [Compound 270] | 0.1 to 1 |
| O=C1CCC(N2Cc3cc(NC(=O)N4CCN(c5ccccn5)CC4)ccc3C2=O)C(=O)N1 (stereo not drawn) [Compound 271] | 0.1 to 1 |
| O=C1CCC(N2Cc3cc(NC(=O)N4CCN(c5ncccn5)CC4)ccc3C2=O)C(=O)N1 (stereo not drawn) [Compound 272] | 0.1 to 1 |
| C[C@@H]1[C@H]2CN(C(=O)Nc3ccc4c(c3)CN(C3CCC(=O)NC3=O)C4=O)C[C@@H]12 (stereo partly drawn) [Compound 273] | < 0.1 |
| O=C1CCC(N2Cc3cc(NC(=O)N4CCC5(CC5)C4)ccc3C2=O)C(=O)N1 (stereo not drawn) [Compound 274] | 0.1 to 1 |
| C[C@@H]1CCN(C(=O)Nc2ccc3c(c2)CN(C2CCC(=O)NC2=O)C3=O)[C@H](C)C1 (stereo partly drawn) [Compound 275] | > 1 |
| O=C1CCC(N2Cc3cc(NC(=O)N4CCCC5CC54)ccc3C2=O)C(=O)N1 (stereo not drawn) [Compound 276] | 0.1 to 1 |
| O=C1CCC(N2Cc3cc(NC(=O)N4CCC(C5CC5)C4)ccc3C2=O)C(=O)N1 (stereo not drawn) [Compound 277] | < 0.1 |
| O=C1CCC(N2Cc3cc(NC(=O)N4CCC5(CCC5)C4)ccc3C2=O)C(=O)N1 (stereo not drawn) [Compound 278] | < 0.1 |
| C[C@H]1CCCN(C(=O)Nc2ccc3c(c2)CN(C2CCC(=O)NC2=O)C3=O)C1 (stereo partly drawn) [Compound 279] | 0.1 to 1 |
| CC1CCCN(C(=O)Nc2ccc3c(c2)CN(C2CCC(=O)NC2=O)C3=O)C1 (stereo not drawn) [Compound 280] | 0.1 to 1 |
| CC1CCN(C(=O)Nc2ccc3c(c2)CN(C2CCC(=O)NC2=O)C3=O)CC1 (stereo not drawn) [Compound 281] | 0.1 to 1 |
| CC1CCCCN1C(=O)Nc1ccc2c(c1)CN(C1CCC(=O)NC1=O)C2=O (stereo not drawn) [Compound 282] | 0.1 to 1 |
| O=C1CCC(N2Cc3cc(NC(=O)N4c5cccc(C(F)(F)F)c5CC45COC5)ccc3C2=O)C(=O)N1 (stereo not drawn) [Compound 296, N-(2-(2,6-dioxopiperidin-3-yl)-1-oxoisoindolin-5-yl)-4-(trifluoromethyl)spiro[indoline-2,3′-oxetane]-1-carboxamide] | < 0.1 |
| C[C@@H]1Cc2cc(F)ccc2N1C(=O)Nc1ccc2c(c1)CN(C1CCC(=O)NC1=O)C2=O (stereo partly drawn) [Compound 363, (2R)—N-(2-(2,6-dioxopiperidin-3-yl)-1-oxoisoindolin-5-yl)-5-fluoro-2-methylindoline-1-carboxamide] | < 0.1 |
